Test results reported in PubChem BioAssay AID2060503 (Molecular Pharmacology Branch, DTP, NCI, 2025).

Test system: 817829-284-R-J1-PDC complex spheroids, viability
Assay: Anticancer human tumor 817829-284-R-J1-PDC patient-derived colon adenocarcinoma cell line growth inhibition [GQUAD]
Settings: for IC50: curve of first compound; for viability, T/C: stronger effect = lower value; active = viability on the fitted dose curve at most 10% of control; inactive = the rest
Method in brief: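 Tumor cells were grown as complex spheroids with HUVEC endothelial cells and mesenchymal stem cells as stroma. G-quadruplex stabilizers were combined with targeted agents over half-log dilutions from near the clinical Cmax, or from 10 microM.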

[1] = second compound 0.0316 µM, first compound 0.0316 µM
[2] = second compound 0.0316 µM, first compound 0.1 µM
[3] = second compound 0.0316 µM, first compound 0.316 µM
[4] = second compound 0.0316 µM, first compound 1 µM
[5] = second compound 0.0316 µM, first compound 3.16 µM
[6] = second compound 0.0316 µM, first compound 10 µM
[7] = second compound 0.1 µM, first compound 0.0316 µM
[8] = second compound 0.1 µM, first compound 0.1 µM
[9] = second compound 0.1 µM, first compound 0.316 µM
[10] = second compound 0.1 µM, first compound 1 µM
[11] = second compound 0.1 µM, first compound 3.16 µM
[12] = second compound 0.1 µM, first compound 10 µM
[13] = second compound 0.316 µM, first compound 0.0316 µM
[14] = second compound 0.316 µM, first compound 0.1 µM
[15] = second compound 0.316 µM, first compound 0.316 µM
[16] = second compound 0.316 µM, first compound 1 µM
[17] = second compound 0.316 µM, first compound 3.16 µM
[18] = second compound 0.316 µM, first compound 10 µM
[19] = second compound 1 µM, first compound 0.0316 µM
[20] = second compound 1 µM, first compound 0.1 µM
[21] = second compound 1 µM, first compound 0.316 µM
[22] = second compound 1 µM, first compound 1 µM
[23] = second compound 1 µM, first compound 3.16 µM
[24] = second compound 1 µM, first compound 10 µM
[25] = second compound 3.16 µM, first compound 0.0316 µM
[26] = second compound 3.16 µM, first compound 0.1 µM
[27] = second compound 3.16 µM, first compound 0.316 µM
[28] = second compound 3.16 µM, first compound 1 µM
[29] = second compound 3.16 µM, first compound 3.16 µM
[30] = second compound 3.16 µM, first compound 10 µM
[31] = second compound 10 µM, first compound 0.0316 µM
[32] = second compound 10 µM, first compound 0.1 µM
[33] = second compound 10 µM, first compound 0.316 µM
[34] = second compound 10 µM, first compound 1 µM
[35] = second compound 10 µM, first compound 3.16 µM
[36] = second compound 10 µM, first compound 10 µM
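Note: spheroids exposed to agents for 7 days before readout.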
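Throughout, for viability, T/C: percent viability relative to DMSO vehicle control taken as 100%.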

CC(C)n1c(=O)n(C)c2cnc3cc(F)c(-c4ccc(OCCCN5CCCCC5)nc4)cc3c21 + CN(C)c1ccc(Nc2c3ccc(NC(=O)CCN4CCCC4)cc3nc3cc(NC(=O)CCN4CCCC4)ccc23)cc1
414 nM: IC50 (second compound 10 µM)
inactive: viability, T/C [1] 92.8% | viability, T/C [2] 104% | viability, T/C [3] 108% | viability, T/C [4] 107% | viability, T/C [5] 105% | viability, T/C [6] 116% | viability, T/C [7] 101% | viability, T/C [8] 107% | viability, T/C [9] 94.3% | viability, T/C [10] 101% | viability, T/C [11] 105% | viability, T/C [12] 108% | viability, T/C [13] 96.8% | viability, T/C [14] 98.3% | viability, T/C [15] 96% | viability, T/C [16] 102% | viability, T/C [17] 104% | viability, T/C [18] 110% | viability, T/C [19] 94.1% | viability, T/C [20] 109% | viability, T/C [21] 97.6% | viability, T/C [22] 96.2% | viability, T/C [23] 91.1% | viability, T/C [24] 94.6% | viability, T/C [25] 90.8% | viability, T/C [26] 105% | viability, T/C [27] 89.4% | viability, T/C [28] 70.8% | viability, T/C [29] 61.1% | viability, T/C [30] 54.5% | viability, T/C [31] 72.7% | viability, T/C [32] 61.9% | viability, T/C [33] 51.7% | viability, T/C [34] 46% | viability, T/C [35] 21% | viability, T/C [36] 13.2%
> 10000 nM: IC50 (second compound 0.0316 µM) | IC50 (second compound 0.1 µM) | IC50 (second compound 0.316 µM) | IC50 (second compound 1 µM) | IC50 (second compound 3.16 µM)

COc1cc(C2c3cc4c(cc3C(OC3OC5COC(C)OC5C(O)C3O)C3COC(=O)C23)OCO4)cc(OC)c1O (stereo unspecified) + Cc1[nH]c2ccc(F)cc2c1-c1nc2c3cccnc3c3ncccc3c2[nH]1
184 nM: IC50 (second compound 0.0316 µM)
active: viability, T/C [34] 8.4% | viability, T/C [35] 6.82% | viability, T/C [36] 2.64%
191 nM: IC50 (second compound 0.316 µM)
inactive: viability, T/C [1] 110% | viability, T/C [2] 67.2% | viability, T/C [3] 31.6% | viability, T/C [4] 27.2% | viability, T/C [5] 28.1% | viability, T/C [6] 10.6% | viability, T/C [7] 95.3% | viability, T/C [8] 91.2% | viability, T/C [9] 29.5% | viability, T/C [10] 31.8% | viability, T/C [11] 26% | viability, T/C [12] 9.21% | viability, T/C [13] 86.7% | viability, T/C [14] 80.4% | viability, T/C [15] 26.4% | viability, T/C [16] 32.7% | viability, T/C [17] 28.9% | viability, T/C [18] 9.89% | viability, T/C [19] 85.6% | viability, T/C [20] 89.7% | viability, T/C [21] 30.7% | viability, T/C [22] 30.4% | viability, T/C [23] 25.1% | viability, T/C [24] 9.74% | viability, T/C [25] 109% | viability, T/C [26] 54.1% | viability, T/C [27] 16.8% | viability, T/C [28] 15.2% | viability, T/C [29] 17.8% | viability, T/C [30] 3.63% | viability, T/C [31] 60.5% | viability, T/C [32] 26.2% | viability, T/C [33] 9.53%
214 nM: IC50 (second compound 1 µM)
44.8 nM: IC50 (second compound 10 µM)
113 nM: IC50 (second compound 3.16 µM)
216 nM: IC50 (second compound 0.1 µM)

CC(=O)O[C@H]1C(=O)[C@@]2(C)[C@H]([C@H](OC(=O)c3ccccc3)[C@]3(O)C[C@H](OC(=O)[C@H](O)[C@@H](NC(=O)c4ccccc4)c4ccccc4)C(C)=C1C3(C)C)[C@]1(OC(C)=O)CO[C@@H]1C[C@@H]2O + Cc1[nH]c2ccc(F)cc2c1-c1nc2c3cccnc3c3ncccc3c2[nH]1
active: viability, T/C [1] 7.69% | viability, T/C [2] 5% | viability, T/C [3] 4.12% | viability, T/C [4] 4.33% | viability, T/C [5] 3.69% | viability, T/C [6] 5.32% | viability, T/C [7] 6.62% | viability, T/C [8] 5.4% | viability, T/C [9] 5.3% | viability, T/C [10] 3.81% | viability, T/C [11] 4.86% | viability, T/C [12] 4.62% | viability, T/C [13] 7.16% | viability, T/C [14] 5.87% | viability, T/C [15] 4.46% | viability, T/C [16] 3.72% | viability, T/C [17] 4.25% | viability, T/C [18] 5.31% | viability, T/C [19] 7.59% | viability, T/C [20] 6.66% | viability, T/C [21] 6.33% | viability, T/C [22] 6.63% | viability, T/C [23] 6.34% | viability, T/C [24] 6.37% | viability, T/C [25] 3.48% | viability, T/C [26] 4.37% | viability, T/C [27] 3.76% | viability, T/C [28] 3.37% | viability, T/C [29] 3.38% | viability, T/C [30] 3.67% | viability, T/C [31] 3.27% | viability, T/C [32] 3.76% | viability, T/C [33] 3.43% | viability, T/C [34] 2.91% | viability, T/C [35] 3.42% | viability, T/C [36] 3.04%
< 31.6 nM: IC50 (second compound 0.0316 µM) | IC50 (second compound 0.1 µM) | IC50 (second compound 0.316 µM) | IC50 (second compound 1 µM) | IC50 (second compound 3.16 µM) | IC50 (second compound 10 µM)
